Assay results taken from US10202361B2, “Pyridazinones as herbicides” (E I DU PONT DE NEMOURS AND COMPANY, priority 2014, dated 2019).

Assays:
Assay in all cases: Test D pre-/postemergence controlled growth environment herbicide test
Format in all cases: in vivo
Conditions in all cases: scale 0 to 100
[1] = system: kochia (Kochia scoparia)
How it was run: (§1)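 Preemergence: seeds sown in silt loam soil and sprayed with test chemicals in a non-phytotoxic solvent mixture containing surfactant. Postemergence: plants grown in peat/vermiculite planting medium and sprayed at 2 to 18 cm (1- to 4-leaf stage). Visual rating versus controls after 14 to 21 d, 0 (no effect) to 100 (complete control).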

[2] = system: foxtail, green (green foxtail, Setaria viridis)
How it was run: as §1

[3] = system: oat, wild (wild oat, Avena fatua)
How it was run: as §1

[4] = system: field violet (Viola arvensis)
How it was run: as §1

[5] = system: canarygrass (Phalaris minor)
How it was run: as §1

[6] = system: barley, spring (spring barley, Hordeum vulgare)
How it was run: as §1

[7] = system: oilseed rape (Brassica napus)
How it was run: as §1

[8] = system: deadnettle (henbit deadnettle, Lamium amplexicaule)
How it was run: as §1

[9] = system: downy bromegrass (Bromus tectorum)
How it was run: as §1

[10] = system: ryegrass, Italian (Italian ryegrass, Lolium multiflorum)
How it was run: as §1

[11] = system: barley, winter (winter barley, Hordeum vulgare)
How it was run: as §1

SMILES: COc1cc(=O)n(-c2ccc(F)cc2)nc1Cc1ccnc(C(F)(F)F)c1 [Compound 17, 2-(4-fluorophenyl)-5-methoxy-6-[[2-(trifluoromethyl)-4-pyridinyl]methyl]-3 (2H)-pyridazinone]
- Plant response rating ([1]; Postemergence, 31 g ai/ha): 25
- Plant response rating ([1]; Postemergence, 62 g ai/ha): 60
- Plant response rating ([1]; Postemergence, 125 g ai/ha): 70
- Plant response rating ([1]; Postemergence, 250 g ai/ha): 80
- Plant response rating ([1]; Postemergence, 500 g ai/ha): 90
- Plant response rating ([1]; Preemergence, 31 g ai/ha): 100
- Plant response rating ([1]; Preemergence, 62 g ai/ha): 100
- Plant response rating ([1]; Preemergence, 125 g ai/ha): 100
- Plant response rating ([1]; Preemergence, 250 g ai/ha): 100
- Plant response rating ([1]; Preemergence, 500 g ai/ha): 100
- Plant response rating ([2]; Postemergence, 31 g ai/ha): 10
- Plant response rating ([2]; Postemergence, 62 g ai/ha): 10
- Plant response rating ([2]; Postemergence, 125 g ai/ha): 15
- Plant response rating ([2]; Postemergence, 250 g ai/ha): 30
- Plant response rating ([2]; Postemergence, 500 g ai/ha): 80
- Plant response rating ([2]; Preemergence, 31 g ai/ha): 15
- Plant response rating ([2]; Preemergence, 62 g ai/ha): 95
- Plant response rating ([2]; Preemergence, 125 g ai/ha): 100
- Plant response rating ([2]; Preemergence, 250 g ai/ha): 100
- Plant response rating ([2]; Preemergence, 500 g ai/ha): 100
- Plant response rating ([3]; Postemergence, 31 g ai/ha): 10
- Plant response rating ([3]; Postemergence, 62 g ai/ha): 10
- Plant response rating ([3]; Postemergence, 125 g ai/ha): 10
- Plant response rating ([3]; Postemergence, 250 g ai/ha): 20
- Plant response rating ([3]; Postemergence, 500 g ai/ha): 50
- Plant response rating ([3]; Preemergence, 31 g ai/ha): 0
- Plant response rating ([3]; Preemergence, 62 g ai/ha): 0
- Plant response rating ([3]; Preemergence, 125 g ai/ha): 50
- Plant response rating ([3]; Preemergence, 250 g ai/ha): 75
- Plant response rating ([3]; Preemergence, 500 g ai/ha): 85
- Plant response rating ([4]; Postemergence, 31 g ai/ha): 60
- Plant response rating ([4]; Postemergence, 62 g ai/ha): 70
- Plant response rating ([4]; Postemergence, 125 g ai/ha): 80
- Plant response rating ([4]; Postemergence, 250 g ai/ha): 100
- Plant response rating ([4]; Postemergence, 500 g ai/ha): 100
- Plant response rating ([4]; Preemergence, 31 g ai/ha): 75
- Plant response rating ([4]; Preemergence, 62 g ai/ha): 85
- Plant response rating ([4]; Preemergence, 125 g ai/ha): 90
- Plant response rating ([4]; Preemergence, 250 g ai/ha): 100
- Plant response rating ([4]; Preemergence, 500 g ai/ha): 100
- Plant response rating ([5]; Postemergence, 31 g ai/ha): 10
- Plant response rating ([5]; Postemergence, 62 g ai/ha): 20
- Plant response rating ([5]; Postemergence, 125 g ai/ha): 20
- Plant response rating ([5]; Postemergence, 250 g ai/ha): 30
- Plant response rating ([5]; Postemergence, 500 g ai/ha): 35
- Plant response rating ([5]; Preemergence, 31 g ai/ha): 0
- Plant response rating ([5]; Preemergence, 62 g ai/ha): 0
- Plant response rating ([5]; Preemergence, 125 g ai/ha): 10
- Plant response rating ([5]; Preemergence, 250 g ai/ha): 30
- Plant response rating ([5]; Preemergence, 500 g ai/ha): 50
- Plant response rating ([6]; Postemergence, 31 g ai/ha): 5
- Plant response rating ([6]; Postemergence, 62 g ai/ha): 10
- Plant response rating ([6]; Postemergence, 125 g ai/ha): 15
- Plant response rating ([6]; Postemergence, 250 g ai/ha): 15
- Plant response rating ([6]; Postemergence, 500 g ai/ha): 35
- Plant response rating ([6]; Preemergence, 31 g ai/ha): 15
- Plant response rating ([6]; Preemergence, 62 g ai/ha): 20
- Plant response rating ([6]; Preemergence, 125 g ai/ha): 20
- Plant response rating ([6]; Preemergence, 250 g ai/ha): 70
- Plant response rating ([6]; Preemergence, 500 g ai/ha): 90
- Plant response rating ([7]; Postemergence, 31 g ai/ha): 50
- Plant response rating ([7]; Postemergence, 62 g ai/ha): 55
- Plant response rating ([7]; Postemergence, 125 g ai/ha): 75
- Plant response rating ([7]; Postemergence, 250 g ai/ha): 85
- Plant response rating ([7]; Postemergence, 500 g ai/ha): 100
- Plant response rating ([7]; Preemergence, 31 g ai/ha): 25
- Plant response rating ([7]; Preemergence, 62 g ai/ha): 25
- Plant response rating ([7]; Preemergence, 125 g ai/ha): 40
- Plant response rating ([7]; Preemergence, 250 g ai/ha): 90
- Plant response rating ([7]; Preemergence, 500 g ai/ha): 90
- Plant response rating ([8]; Postemergence, 31 g ai/ha): 50
- Plant response rating ([8]; Postemergence, 62 g ai/ha): 50
- Plant response rating ([8]; Postemergence, 125 g ai/ha): 65
- Plant response rating ([8]; Postemergence, 250 g ai/ha): 98
- Plant response rating ([8]; Postemergence, 500 g ai/ha): 100
- Plant response rating ([8]; Preemergence, 31 g ai/ha): 100
- Plant response rating ([8]; Preemergence, 62 g ai/ha): 100
- Plant response rating ([8]; Preemergence, 125 g ai/ha): 100
- Plant response rating ([8]; Preemergence, 250 g ai/ha): 100
- Plant response rating ([8]; Preemergence, 500 g ai/ha): 100
- Plant response rating ([9]; Postemergence, 31 g ai/ha): 10
- Plant response rating ([9]; Postemergence, 62 g ai/ha): 10
- Plant response rating ([9]; Postemergence, 125 g ai/ha): 15
- Plant response rating ([9]; Postemergence, 250 g ai/ha): 25
- Plant response rating ([9]; Postemergence, 500 g ai/ha): 30
- Plant response rating ([9]; Preemergence, 31 g ai/ha): 10
- Plant response rating ([9]; Preemergence, 62 g ai/ha): 10
- Plant response rating ([9]; Preemergence, 125 g ai/ha): 15
- Plant response rating ([9]; Preemergence, 250 g ai/ha): 30
- Plant response rating ([9]; Preemergence, 500 g ai/ha): 50
- Plant response rating ([10]; Postemergence, 31 g ai/ha): 10
- Plant response rating ([10]; Postemergence, 62 g ai/ha): 10
- Plant response rating ([10]; Postemergence, 125 g ai/ha): 10
- Plant response rating ([10]; Postemergence, 250 g ai/ha): 15
- Plant response rating ([10]; Postemergence, 500 g ai/ha): 35
- Plant response rating ([10]; Preemergence, 31 g ai/ha): 0
- Plant response rating ([10]; Preemergence, 62 g ai/ha): 0
- Plant response rating ([10]; Preemergence, 125 g ai/ha): 0
- Plant response rating ([10]; Preemergence, 250 g ai/ha): 50
- Plant response rating ([10]; Preemergence, 500 g ai/ha): 80
- Plant response rating ([11]; Postemergence, 31 g ai/ha): 15
- Plant response rating ([11]; Postemergence, 62 g ai/ha): 15
- Plant response rating ([11]; Postemergence, 125 g ai/ha): 25
- Plant response rating ([11]; Postemergence, 250 g ai/ha): 30
- Plant response rating ([11]; Postemergence, 500 g ai/ha): 35
- Plant response rating ([11]; Preemergence, 31 g ai/ha): 10
- Plant response rating ([11]; Preemergence, 62 g ai/ha): 20
- Plant response rating ([11]; Preemergence, 125 g ai/ha): 40
- Plant response rating ([11]; Preemergence, 250 g ai/ha): 75
- Plant response rating ([11]; Preemergence, 500 g ai/ha): 80
